± gives the expanded uncertainty stated by the source.
Settings: Liquid; for speed of sound: Pulse-echo method; for mass density: Vibrating tube method

For `CCCCCCCCCC(=O)OCC` [ethyl decanoate], the speed of sound (283.15 K, 101.3 kPa) was 1352.7 ± 5.6 m/s, the speed of sound (283.15 K, 10000 kPa) was 1398.5 ± 5.8 m/s and the speed of sound (283.15 K, 20000 kPa) was 1442.3 ± 6 m/s. The speed of sound (283.15 K, 30000 kPa) was 1483.7 ± 6.1 m/s, the speed of sound (283.15 K, 40000 kPa) was 1522.5 ± 6.3 m/s and the speed of sound (283.15 K, 50000 kPa) was 1558.3 ± 6.4 m/s. It also gave a speed of sound (283.15 K, 60000 kPa) of 1593.9 ± 6.6 m/s, a speed of sound (283.15 K, 70000 kPa) of 1627 ± 6.7 m/s and a speed of sound (283.15 K, 80000 kPa) of 1658.8 ± 6.9 m/s. It also gave a speed of sound (283.15 K, 90000 kPa) of 1689.9 ± 7 m/s, a speed of sound (283.15 K, 100000 kPa) of 1720.7 ± 10 m/s and a speed of sound (283.15 K, 110000 kPa) of 1753.7 ± 11 m/s. The speed of sound (283.15 K, 120000 kPa) was 1781.4 ± 11 m/s, the speed of sound (283.15 K, 130000 kPa) was 1808.5 ± 11 m/s and the speed of sound (283.15 K, 140000 kPa) was 1834.6 ± 11 m/s. It also gave a speed of sound (283.15 K, 150000 kPa) of 1860.3 ± 11 m/s, a speed of sound (283.15 K, 170000 kPa) of 1908.7 ± 12 m/s and a speed of sound (283.15 K, 190000 kPa) of 1951.8 ± 12 m/s. It also gave a speed of sound (283.15 K, 210000 kPa) of 1998 ± 12 m/s, a mass density (293.15 K, 101.3 kPa) of 863.82 ± 1 kg/m3 and a mass density (293.15 K, 10000 kPa) of 870.79 ± 1 kg/m3. The mass density (293.15 K, 20000 kPa) was 877.08 ± 1.1 kg/m3, the mass density (293.15 K, 30000 kPa) was 882.99 ± 1.1 kg/m3 and the mass density (293.15 K, 40000 kPa) was 888.58 ± 1.1 kg/m3. The mass density (293.15 K, 50000 kPa) was 893.79 ± 1.1 kg/m3, the mass density (293.15 K, 60000 kPa) was 898.83 ± 1.1 kg/m3 and the mass density (293.15 K, 70000 kPa) was 903.51 ± 1.1 kg/m3. The mass density (293.15 K, 80000 kPa) was 907.69 ± 1.1 kg/m3, the mass density (293.15 K, 90000 kPa) was 912.24 ± 1.1 kg/m3 and the mass density (293.15 K, 100000 kPa) was 916.37 ± 1.1 kg/m3. The speed of sound (303.15 K, 101.3 kPa) was 1275 ± 5.3 m/s, the mass density (303.15 K, 101.3 kPa) was 855.53 ± 1 kg/m3 and the speed of sound (303.15 K, 10000 kPa) was 1325.7 ± 5.5 m/s. It also gave a mass density (303.15 K, 10000 kPa) of 863.17 ± 1 kg/m3, a speed of sound (303.15 K, 20000 kPa) of 1373.2 ± 5.7 m/s and a mass density (303.15 K, 20000 kPa) of 869.73 ± 1.1 kg/m3. For the same molecule, the speed of sound (303.15 K, 30000 kPa) was 1416.8 ± 5.9 m/s, the mass density (303.15 K, 30000 kPa) was 875.81 ± 1.1 kg/m3 and the speed of sound (303.15 K, 40000 kPa) was 1458.3 ± 6.1 m/s. For the same molecule, the mass density (303.15 K, 40000 kPa) was 881.53 ± 1.1 kg/m3, the speed of sound (303.15 K, 50000 kPa) was 1498 ± 6.2 m/s and the mass density (303.15 K, 50000 kPa) was 887 ± 1.1 kg/m3. The speed of sound (303.15 K, 60000 kPa) was 1535.5 ± 6.4 m/s, the mass density (303.15 K, 60000 kPa) was 892.12 ± 1.1 kg/m3 and the speed of sound (303.15 K, 70000 kPa) was 1569.9 ± 6.5 m/s. The mass density (303.15 K, 70000 kPa) was 897.09 ± 1.1 kg/m3, the speed of sound (303.15 K, 80000 kPa) was 1603.2 ± 6.7 m/s and the mass density (303.15 K, 80000 kPa) was 901.73 ± 1.1 kg/m3. The speed of sound (303.15 K, 90000 kPa) was 1635.3 ± 6.8 m/s, the mass density (303.15 K, 90000 kPa) was 906.27 ± 1.1 kg/m3 and the speed of sound (303.15 K, 100000 kPa) was 1666.2 ± 10 m/s. The mass density (303.15 K, 100000 kPa) was 910.56 ± 1.1 kg/m3, the speed of sound (303.15 K, 110000 kPa) was 1696.2 ± 10 m/s and the speed of sound (303.15 K, 120000 kPa) was 1724.8 ± 10 m/s. The speed of sound (303.15 K, 130000 kPa) was 1752.9 ± 11 m/s, the speed of sound (303.15 K, 140000 kPa) was 1779.2 ± 11 m/s and the speed of sound (303.15 K, 150000 kPa) was 1805.4 ± 11 m/s. The speed of sound (303.15 K, 170000 kPa) was 1854.6 ± 11 m/s, the speed of sound (303.15 K, 190000 kPa) was 1902.4 ± 12 m/s and the speed of sound (303.15 K, 210000 kPa) was 1947.7 ± 12 m/s. For the same molecule, the mass density (313.15 K, 101.3 kPa) was 847.99 ± 1 kg/m3, the mass density (313.15 K, 10000 kPa) was 855.19 ± 1.1 kg/m3 and the mass density (313.15 K, 20000 kPa) was 862 ± 1.1 kg/m3. It also gave a mass density (313.15 K, 30000 kPa) of 868.5 ± 1.1 kg/m3, a mass density (313.15 K, 40000 kPa) of 874.4 ± 1.1 kg/m3 and a mass density (313.15 K, 50000 kPa) of 880 ± 1.1 kg/m3. It also gave a mass density (313.15 K, 60000 kPa) of 885.4 ± 1.1 kg/m3, a mass density (313.15 K, 70000 kPa) of 890.5 ± 1.1 kg/m3 and a mass density (313.15 K, 80000 kPa) of 895.4 ± 1.1 kg/m3. The mass density (313.15 K, 90000 kPa) was 900 ± 1.1 kg/m3, the mass density (313.15 K, 100000 kPa) was 904.4 ± 1.1 kg/m3 and the speed of sound (323.15 K, 101.3 kPa) was 1203.1 ± 5 m/s. It also gave a mass density (323.15 K, 101.3 kPa) of 839.75 ± 1 kg/m3, a speed of sound (323.15 K, 10000 kPa) of 1258.2 ± 5.3 m/s and a mass density (323.15 K, 10000 kPa) of 847.49 ± 1.1 kg/m3. The speed of sound (323.15 K, 20000 kPa) was 1309.5 ± 5.5 m/s, the mass density (323.15 K, 20000 kPa) was 854.78 ± 1.1 kg/m3 and the speed of sound (323.15 K, 30000 kPa) was 1355.9 ± 5.6 m/s. The mass density (323.15 K, 30000 kPa) was 861.46 ± 1.1 kg/m3, the speed of sound (323.15 K, 40000 kPa) was 1399.1 ± 5.8 m/s and the mass density (323.15 K, 40000 kPa) was 867.52 ± 1.1 kg/m3. The speed of sound (323.15 K, 50000 kPa) was 1439.4 ± 6 m/s, the mass density (323.15 K, 50000 kPa) was 873.23 ± 1.1 kg/m3 and the speed of sound (323.15 K, 60000 kPa) was 1478.4 ± 6.1 m/s. It also gave a mass density (323.15 K, 60000 kPa) of 879.07 ± 1.1 kg/m3, a speed of sound (323.15 K, 70000 kPa) of 1515.1 ± 6.3 m/s and a mass density (323.15 K, 70000 kPa) of 884.28 ± 1.1 kg/m3. For the same molecule, the speed of sound (323.15 K, 80000 kPa) was 1550.3 ± 6.4 m/s, the mass density (323.15 K, 80000 kPa) was 889.28 ± 1.1 kg/m3 and the speed of sound (323.15 K, 90000 kPa) was 1583.7 ± 6.6 m/s. The mass density (323.15 K, 90000 kPa) was 894.05 ± 1.1 kg/m3, the speed of sound (323.15 K, 100000 kPa) was 1615.7 ± 9.9 m/s and the mass density (323.15 K, 100000 kPa) was 898.41 ± 1.2 kg/m3. The speed of sound (323.15 K, 110000 kPa) was 1645.8 ± 10 m/s, the speed of sound (323.15 K, 120000 kPa) was 1676.7 ± 10 m/s and the speed of sound (323.15 K, 130000 kPa) was 1705.7 ± 10 m/s. The speed of sound (323.15 K, 140000 kPa) was 1733.7 ± 11 m/s, the speed of sound (323.15 K, 150000 kPa) was 1760.3 ± 11 m/s and the speed of sound (323.15 K, 170000 kPa) was 1811.6 ± 11 m/s. The speed of sound (323.15 K, 190000 kPa) was 1861.2 ± 11 m/s, the speed of sound (323.15 K, 210000 kPa) was 1909.8 ± 12 m/s and the mass density (333.15 K, 101.3 kPa) was 831.19 ± 1 kg/m3. For the same molecule, the mass density (333.15 K, 10000 kPa) was 839.38 ± 1.1 kg/m3, the mass density (333.15 K, 20000 kPa) was 846.93 ± 1.1 kg/m3 and the mass density (333.15 K, 30000 kPa) was 853.95 ± 1.1 kg/m3. For the same molecule, the mass density (333.15 K, 40000 kPa) was 860.39 ± 1.1 kg/m3, the mass density (333.15 K, 50000 kPa) was 866.43 ± 1.1 kg/m3 and the mass density (333.15 K, 60000 kPa) was 872.17 ± 1.1 kg/m3. The mass density (333.15 K, 70000 kPa) was 877.53 ± 1.1 kg/m3, the mass density (333.15 K, 80000 kPa) was 882.56 ± 1.1 kg/m3 and the mass density (333.15 K, 90000 kPa) was 887.46 ± 1.2 kg/m3. It also gave a mass density (333.15 K, 100000 kPa) of 892.18 ± 1.2 kg/m3, a speed of sound (343.15 K, 101.3 kPa) of 1133.3 ± 4.8 m/s and a mass density (343.15 K, 101.3 kPa) of 822.9 ± 1 kg/m3. The speed of sound (343.15 K, 10000 kPa) was 1192.8 ± 5 m/s, the mass density (343.15 K, 10000 kPa) was 831.45 ± 1.1 kg/m3 and the speed of sound (343.15 K, 20000 kPa) was 1247 ± 5.2 m/s. The mass density (343.15 K, 20000 kPa) was 839.59 ± 1.1 kg/m3, the speed of sound (343.15 K, 30000 kPa) was 1297.2 ± 5.4 m/s and the mass density (343.15 K, 30000 kPa) was 846.94 ± 1.1 kg/m3. For the same molecule, the speed of sound (343.15 K, 40000 kPa) was 1343 ± 5.6 m/s, the mass density (343.15 K, 40000 kPa) was 853.75 ± 1.1 kg/m3 and the speed of sound (343.15 K, 50000 kPa) was 1385.7 ± 5.8 m/s. For the same molecule, the mass density (343.15 K, 50000 kPa) was 860.03 ± 1.1 kg/m3, the speed of sound (343.15 K, 60000 kPa) was 1425.7 ± 5.9 m/s and the mass density (343.15 K, 60000 kPa) was 865.88 ± 1.1 kg/m3. For the same molecule, the speed of sound (343.15 K, 70000 kPa) was 1463.9 ± 6.1 m/s.

Source: the NIST ThermoML archive (doi:10.1021/je300405a)
